# Laboratory results taken from patent US5629343A, “N-(mercaptoacyl) peptidyl derivatives as antidegenerative agents” (Merck & Co., Inc., priority 1995, dated 1997).
# Where two headings read alike, the source gives them in different places.
# What was measured:
# stromelysin = stromelysin (Homo sapiens, UniProt P08254); experiment: Inhibition of stromelysin: hydrolysis of substance P, semicontinuous HPLC-based assay; format: biochemical; conditions: for IC50: substrate substance P
# [1] = molecular target: T1, human rheumatoid synovial collagenase (Homo sapiens, UniProt P03956); conditions: cited from earlier work
# T1 sequence (P03956 100-469): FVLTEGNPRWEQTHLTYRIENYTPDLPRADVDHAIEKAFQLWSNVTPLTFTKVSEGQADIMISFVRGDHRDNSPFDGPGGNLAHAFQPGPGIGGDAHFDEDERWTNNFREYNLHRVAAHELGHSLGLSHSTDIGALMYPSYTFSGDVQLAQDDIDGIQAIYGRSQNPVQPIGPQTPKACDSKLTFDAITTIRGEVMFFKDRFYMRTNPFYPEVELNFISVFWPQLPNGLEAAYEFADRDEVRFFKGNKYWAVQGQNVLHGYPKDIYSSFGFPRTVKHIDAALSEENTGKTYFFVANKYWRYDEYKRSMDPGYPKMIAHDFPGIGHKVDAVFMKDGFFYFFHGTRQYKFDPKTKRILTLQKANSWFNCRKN
# [2] = molecular target: rabbit bone proteoglycanase (Oryctolagus cuniculus, UniProt P28863); conditions: cited from earlier work
# Sequence of rabbit bone proteoglycanase (P28863 101-478): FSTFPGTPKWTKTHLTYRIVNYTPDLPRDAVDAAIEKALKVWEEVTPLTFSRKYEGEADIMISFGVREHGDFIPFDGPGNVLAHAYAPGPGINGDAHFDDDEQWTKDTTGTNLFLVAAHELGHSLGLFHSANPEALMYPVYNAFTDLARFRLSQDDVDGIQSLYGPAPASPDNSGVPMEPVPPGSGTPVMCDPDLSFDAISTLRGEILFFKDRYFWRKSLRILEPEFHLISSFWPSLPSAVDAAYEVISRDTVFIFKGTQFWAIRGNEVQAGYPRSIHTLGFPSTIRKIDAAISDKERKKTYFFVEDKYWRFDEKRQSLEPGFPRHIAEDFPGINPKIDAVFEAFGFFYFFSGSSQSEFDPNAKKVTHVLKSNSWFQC
# [3] = higher Rf isomer (diastereomer), read-out: IC50 ± S.E. Higher Rf isomer
# [4] = lower Rf isomer (diastereomer), read-out: IC50 ± S.E. Lower Rf isomer
# Sequence of stromelysin (P08254 100-477): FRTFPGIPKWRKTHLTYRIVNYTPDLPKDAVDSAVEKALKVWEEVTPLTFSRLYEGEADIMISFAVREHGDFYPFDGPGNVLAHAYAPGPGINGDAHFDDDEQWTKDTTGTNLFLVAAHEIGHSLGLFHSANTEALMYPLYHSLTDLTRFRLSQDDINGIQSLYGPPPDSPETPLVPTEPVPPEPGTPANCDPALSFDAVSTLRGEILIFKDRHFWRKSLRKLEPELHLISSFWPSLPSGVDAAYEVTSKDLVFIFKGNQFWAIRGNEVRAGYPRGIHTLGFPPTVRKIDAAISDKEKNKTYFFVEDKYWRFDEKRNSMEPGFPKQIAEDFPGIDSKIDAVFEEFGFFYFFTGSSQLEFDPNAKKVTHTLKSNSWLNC
IC50 (stromelysin; [3]) [nM],IC50 (stromelysin; [4]) [nM],Structure (SMILES),further results
7300 ± 3300,2500 ± 1200,"CC(C)C[C@H](NC(=O)C(CS)CCc1ccccc1)C(=O)NCc1ccccc1 (stereo partly drawn) [Compound 1c, N-(2-Thiomethyl-4-phenylbutanoyl)-(L)-leucine, N-benzylamide]",–
–,–,"O=C(N[C@@H](Cc1ccccc1)C(=O)NCc1ccccc1)C(CS)CCc1ccccc1 (stereo partly drawn) [Compound 1g, N-(2-Thiomethyl-4-phenylbutanoyl)-(L)-phenylalanine, N-benzylamide]","% inh. Higher Rf isomer (stromelysin; higher Rf isomer, @ 1.4 μM): 63 % inh.; % inh. Lower Rf isomer (stromelysin; lower Rf isomer, @ 3.3 μM): 98 % inh."
1100 ± 300,2200 ± 800,"O=C(N[C@@H](Cc1ccccc1)C(=O)Nc1ccccc1)C(CS)CCc1ccccc1 (stereo partly drawn) [Compound 1f, N-(2-Thiomethyl-4-phenylbutanoyl)-(L)-phenylalanine, N-phenylamide]",–
3100 ± 500,1900 ± 600,"NC(=O)[C@H](Cc1ccccc1)NC(=O)C(CS)CCc1ccccc1 (stereo partly drawn) [Compound 1e, N-(2-Thiomethyl-4-phenylbutanoyl)-(L)-phenylalaninamide]",–
–,–,"CNC(=O)[C@H](Cc1ccc(OC)cc1)NC(=O)[C@H](CC(C)C)NC(CCNC(=O)OCc1ccccc1)C(=O)O (stereo partly drawn) [N-[3-(benzyloxycarbonyl)amino-1-carboxy-n-propyl]-L-leucyl-O-methyl-L-tyrosine, N-methylamide]",IC50 [1]: 800 nM; IC50 [2]: 500 nM
1600 ± 500,490 ± 100,"CC(C)C[C@H](NC(=O)C(CS)CCc1ccccc1)C(=O)Nc1ccccc1 (stereo partly drawn) [Compound 1b, N-(2-Thiomethyl-4-phenylbutanoyl)-(L)-leucine, N-phenylamide]",–
4100 ± 350,–,"O=C(O)CCNC(=O)[C@H](Cc1ccccc1)NC(=O)C(CS)CCc1ccccc1 (stereo partly drawn) [Compound 1h, N-(2-Thiomethyl-4-phenylbutanoyl)-(L)-phenylalanine-β-alanine]",–
3300 ± 400,960 ± 100,"CC(C)C[C@H](NC(=O)C(CS)CCc1ccccc1)C(N)=O (stereo partly drawn) [Compound 1a, N-(2-Thiomethyl-4-phenylbutanoyl)-(L)-leucinamide]",–
